In patent US12673052B2, “Combinations for the treatment of cancer” (Exelixis, Inc., priority 2020, dated 2026):

Experiments:
[1] = system: MC38 tumor; assay: Tumor microvessels by CD31 staining in MC38 tumor-bearing animals; assay type: in vivo, murine
Description: MC38 tumor-bearing animals were treated with a range of Compound 1 doses (PO, qd; 3 mg/kg, 10 mg/kg, 30 mg/kg Compound 1) for 5 days. Tumors were analyzed for the presence of tumor microvessels by CD31 staining. FIG. 1A and FIG. 1B compare the tumor microvessels after administration of different doses of Compared 1 with vehicle.

[2] = target: AXL (Homo sapiens, UniProt P30530); assay: Kinase catalytic activity assay, radioactive assay platform; assay type: biochemical; conditions: 10 μM ATP
Description: (§1) Compound 1 inhibitory activity was evaluated in multiple kinase catalytic activity assays using a radioactive assay platform. […] All in vitro biochemical assays were performed at 10 μM ATP concentrations.

[3] = target: T1, MER (Homo sapiens, UniProt Q12866); assay: as above; assay type: biochemical; conditions: 10 μM ATP
Description: as §1

[4] = target: MET (Homo sapiens, UniProt P08581); assay: as above; assay type: biochemical; conditions: 10 μM ATP
Description: as §1

[5] = target: VEGFR2 (Homo sapiens, UniProt P35968); assay: as above; assay type: biochemical; conditions: 10 μM ATP
Description: as §1

[6] = Toxicokinetics in 28-day repeat-dose toxicity study; assay type: in vivo, dogs; conditions: for half-life: oral
Description: In a 28-day repeat-dose toxicity study in dogs dosed orally daily with Compound 1 at 2, 6 and 18 mg/kg, high variability in Compound 1 exposure was generally observed for all dose levels on Days 1 and 28. Across the dose range evaluated, the mean % CV for Cmax and AUC0-24 was 46.2-93.2% and 45.5-91%, respectively, on Day 1 and 39.3-53.9% and 36.2-51.1%, respectively, on Day 28.

[7] = Tablet versus PIB formulation, single oral 20 mg dose, parallel design; assay type: in vivo, dogs; conditions: for half-life: po, read-out: t1/2, z (mean) (converted)
Description: In a parallel design study with a total of 24 dogs (1:1 treatment allocation ratio), Group 1 received Compound 1 as a 20-mg oral tablet and Group 2 received a 20-mg reconstituted oral suspension of the PIB formulation. For each dose group, blood samples were collected from each animal at pre-dose and up to 24 hours post-dose for Compound 1 plasma concentration measurements.

[8] = system: CYP2B6; assay: Cytochrome P450 induction (mRNA levels) in fresh primary human hepatocytes; assay type: in vitro ADME
[9] = Hepatocyte stability assay; assay type: in vitro ADME, mouse; conditions: hepatocytes
Description: (§2) In the liver microsomal stability assay, CLint was 0.601 mL/min/g liver in mouse, 0.563 mL/min/g liver in rat, 0.315 mL/min/g liver in dog, 0.734 mL/min/g liver in monkey, and 0.639 mL/min/g liver in human. In the hepatocyte stability assay, Compound 1 CLint was 0.373 mL/min/g liver in mouse, 0.285 mL/min/g liver in rat, 1.08 mL/min/g liver in dog, 0.533 mL/min/g liver in monkey, and 0.317 mL/min/g liver in human.

[10] = Hepatocyte stability assay; assay type: in vitro ADME, rat; conditions: hepatocytes
Description: (§3) The mean plasma t1/2, z values were approximately 9 hours in rats and 4 hours in dogs. Interspecies scaling based on body weight to predict PK parameters in humans could not be performed because dogs (larger species) cleared Compound 1 faster than rats (smaller species). Therefore, the human PK was projected based on one species (rat). […] This apparent clearance value (CL/F) was used to predict steady-state exposure (AUC and average plasma concentration [Cavg]) in humans for the proposed first-in-human (FIH) starting dose for Study Compound 1-001.
as §2

[11] = Hepatocyte stability assay; assay type: in vitro ADME, dog; conditions: hepatocytes
Description: as §3, §2

[12] = Hepatocyte stability assay; assay type: in vitro ADME, human; conditions: hepatocytes
Description: as §3, §2

[13] = Repeat-dose toxicity studies (7-day range-finding, definitive 28-day, 14-day recovery); assay type: in vivo, dogs
Description: The nonclinical toxicity of Compound 1 was characterized in dose range-finding 7-day and definitive 28-day repeat-dose studies in rats and dogs, and in in vitro bacterial and mammalian genotoxicity bioassays. Compound 1 was also evaluated in definitive neurobehavioral, respiratory and cardiovascular safety pharmacology studies.

[14] = target: T1, MER; assay: RTK autophosphorylation ELISA, 293A cells transfected with receptor expression vector; assay type: cell-based; parameters: expressed in transfected cells; host or cells: 293A; conditions: no ligand, read-out: Cellular IC50
Description: The activity of Compound 1 was evaluated in cell-based assays that assessed the mechanistic effects of the compound in tumor and normal cells. Consistent with the biochemical data, Compound 1 is a potent inhibitor of cellular RTKs as assessed by analysis of receptor autophosphorylation as measured by enzyme-linked immunosorbent assay. Assays were performed using cell lines (PC-3, HUVEC, and A-172) stimulated with ligands to their respective receptors to induce autophosphorylation (MET, VEGFR2, and AXL) or a cell line (293A) transfected with an expression vector encoding the receptor of interest (MER). Inhibition of endogenous phosphorylated MET by Compound 1 in Hs 746T gastric carcinoma cells was also investigated due to the presence of the skip-splice mutation of exon 14 in the MET gene. This MET exon 14 alteration leads to increased MET stability and oncogenic activation, including constitutive MET phosphorylation. Also this mutation is known to occur in 3% of lung adenocarcinoma patients and to be sensitive to MET-targeted therapies (Frampton et al 2015).

T1 sequence (Q12866 21-999): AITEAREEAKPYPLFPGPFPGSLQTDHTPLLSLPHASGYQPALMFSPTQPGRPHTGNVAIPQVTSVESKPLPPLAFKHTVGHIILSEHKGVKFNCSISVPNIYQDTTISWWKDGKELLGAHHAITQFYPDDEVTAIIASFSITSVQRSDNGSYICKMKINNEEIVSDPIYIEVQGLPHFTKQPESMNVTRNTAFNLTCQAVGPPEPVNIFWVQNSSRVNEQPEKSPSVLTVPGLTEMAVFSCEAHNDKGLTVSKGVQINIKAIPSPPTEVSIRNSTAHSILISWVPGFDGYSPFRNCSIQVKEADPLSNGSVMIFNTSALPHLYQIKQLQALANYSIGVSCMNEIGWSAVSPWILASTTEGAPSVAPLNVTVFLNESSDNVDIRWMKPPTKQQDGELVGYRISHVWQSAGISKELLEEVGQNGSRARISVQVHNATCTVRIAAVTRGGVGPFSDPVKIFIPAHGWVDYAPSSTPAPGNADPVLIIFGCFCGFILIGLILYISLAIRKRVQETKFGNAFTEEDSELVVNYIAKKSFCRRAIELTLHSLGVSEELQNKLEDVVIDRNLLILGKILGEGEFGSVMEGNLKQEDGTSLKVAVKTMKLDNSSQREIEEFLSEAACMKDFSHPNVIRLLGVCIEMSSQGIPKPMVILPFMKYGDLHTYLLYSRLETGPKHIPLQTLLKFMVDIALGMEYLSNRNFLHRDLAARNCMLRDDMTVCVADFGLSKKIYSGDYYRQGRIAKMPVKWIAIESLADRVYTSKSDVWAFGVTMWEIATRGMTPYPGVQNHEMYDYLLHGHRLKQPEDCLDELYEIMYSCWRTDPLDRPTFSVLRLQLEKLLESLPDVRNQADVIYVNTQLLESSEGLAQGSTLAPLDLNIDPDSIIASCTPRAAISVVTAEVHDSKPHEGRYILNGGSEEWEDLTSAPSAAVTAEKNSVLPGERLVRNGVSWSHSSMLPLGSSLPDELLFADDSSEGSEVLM
Sequence of MET (P08581 25-1390): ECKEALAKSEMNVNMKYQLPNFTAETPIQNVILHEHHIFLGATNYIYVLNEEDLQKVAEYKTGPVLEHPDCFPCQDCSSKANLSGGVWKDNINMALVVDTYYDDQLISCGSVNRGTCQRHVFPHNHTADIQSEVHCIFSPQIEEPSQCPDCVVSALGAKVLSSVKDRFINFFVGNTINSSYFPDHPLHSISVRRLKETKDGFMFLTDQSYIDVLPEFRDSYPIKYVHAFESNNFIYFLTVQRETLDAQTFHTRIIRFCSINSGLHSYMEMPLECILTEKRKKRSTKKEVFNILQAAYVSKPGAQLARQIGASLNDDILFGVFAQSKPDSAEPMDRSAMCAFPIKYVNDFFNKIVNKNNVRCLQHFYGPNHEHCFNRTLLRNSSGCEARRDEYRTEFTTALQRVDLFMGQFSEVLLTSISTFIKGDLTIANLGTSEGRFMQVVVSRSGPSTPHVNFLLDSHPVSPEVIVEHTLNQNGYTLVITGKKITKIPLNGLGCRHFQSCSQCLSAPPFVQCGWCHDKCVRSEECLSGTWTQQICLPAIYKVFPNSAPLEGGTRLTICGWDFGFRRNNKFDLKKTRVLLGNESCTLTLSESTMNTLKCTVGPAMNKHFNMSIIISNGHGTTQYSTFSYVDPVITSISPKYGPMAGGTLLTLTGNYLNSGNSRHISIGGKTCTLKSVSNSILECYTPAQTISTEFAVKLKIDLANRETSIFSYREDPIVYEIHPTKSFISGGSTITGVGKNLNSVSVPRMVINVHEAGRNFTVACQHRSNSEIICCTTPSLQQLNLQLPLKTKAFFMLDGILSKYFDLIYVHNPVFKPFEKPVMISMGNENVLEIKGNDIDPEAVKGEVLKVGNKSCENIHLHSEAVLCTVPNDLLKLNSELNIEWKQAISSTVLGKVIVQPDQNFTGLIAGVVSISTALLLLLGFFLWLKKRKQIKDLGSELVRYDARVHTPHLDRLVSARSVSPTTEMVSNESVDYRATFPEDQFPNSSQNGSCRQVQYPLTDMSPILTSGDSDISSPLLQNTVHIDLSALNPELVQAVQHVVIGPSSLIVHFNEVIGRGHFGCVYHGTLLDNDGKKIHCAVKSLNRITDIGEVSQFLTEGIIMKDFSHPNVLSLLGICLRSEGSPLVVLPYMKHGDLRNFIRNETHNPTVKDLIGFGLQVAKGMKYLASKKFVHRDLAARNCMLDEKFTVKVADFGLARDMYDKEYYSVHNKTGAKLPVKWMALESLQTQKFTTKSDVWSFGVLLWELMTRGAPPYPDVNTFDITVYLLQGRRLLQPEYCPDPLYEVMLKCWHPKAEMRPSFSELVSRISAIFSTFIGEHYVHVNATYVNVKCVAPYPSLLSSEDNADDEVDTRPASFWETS
Sequence of AXL (P30530 26-894): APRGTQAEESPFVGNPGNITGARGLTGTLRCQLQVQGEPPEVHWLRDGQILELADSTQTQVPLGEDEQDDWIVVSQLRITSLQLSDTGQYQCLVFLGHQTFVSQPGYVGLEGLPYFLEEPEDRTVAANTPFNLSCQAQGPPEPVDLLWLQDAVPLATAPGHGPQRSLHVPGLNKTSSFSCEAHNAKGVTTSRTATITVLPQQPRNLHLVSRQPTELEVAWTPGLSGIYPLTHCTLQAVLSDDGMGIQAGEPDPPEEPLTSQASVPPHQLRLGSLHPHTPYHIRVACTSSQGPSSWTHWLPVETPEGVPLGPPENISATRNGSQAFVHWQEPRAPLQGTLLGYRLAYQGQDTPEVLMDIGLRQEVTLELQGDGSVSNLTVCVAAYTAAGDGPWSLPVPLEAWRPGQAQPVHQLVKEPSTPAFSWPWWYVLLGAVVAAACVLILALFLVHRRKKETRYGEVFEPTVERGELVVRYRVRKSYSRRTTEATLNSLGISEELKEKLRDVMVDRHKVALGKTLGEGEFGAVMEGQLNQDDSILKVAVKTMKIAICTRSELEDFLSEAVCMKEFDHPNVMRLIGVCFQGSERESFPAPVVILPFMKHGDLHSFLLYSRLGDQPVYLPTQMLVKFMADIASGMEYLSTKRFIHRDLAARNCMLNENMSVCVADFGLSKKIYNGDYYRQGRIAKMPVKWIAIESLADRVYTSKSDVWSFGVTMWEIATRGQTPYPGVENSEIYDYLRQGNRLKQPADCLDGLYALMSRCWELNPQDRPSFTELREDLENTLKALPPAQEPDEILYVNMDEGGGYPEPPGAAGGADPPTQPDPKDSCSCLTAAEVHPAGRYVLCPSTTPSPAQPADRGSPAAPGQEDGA
Sequence of VEGFR2 (P35968 20-1356): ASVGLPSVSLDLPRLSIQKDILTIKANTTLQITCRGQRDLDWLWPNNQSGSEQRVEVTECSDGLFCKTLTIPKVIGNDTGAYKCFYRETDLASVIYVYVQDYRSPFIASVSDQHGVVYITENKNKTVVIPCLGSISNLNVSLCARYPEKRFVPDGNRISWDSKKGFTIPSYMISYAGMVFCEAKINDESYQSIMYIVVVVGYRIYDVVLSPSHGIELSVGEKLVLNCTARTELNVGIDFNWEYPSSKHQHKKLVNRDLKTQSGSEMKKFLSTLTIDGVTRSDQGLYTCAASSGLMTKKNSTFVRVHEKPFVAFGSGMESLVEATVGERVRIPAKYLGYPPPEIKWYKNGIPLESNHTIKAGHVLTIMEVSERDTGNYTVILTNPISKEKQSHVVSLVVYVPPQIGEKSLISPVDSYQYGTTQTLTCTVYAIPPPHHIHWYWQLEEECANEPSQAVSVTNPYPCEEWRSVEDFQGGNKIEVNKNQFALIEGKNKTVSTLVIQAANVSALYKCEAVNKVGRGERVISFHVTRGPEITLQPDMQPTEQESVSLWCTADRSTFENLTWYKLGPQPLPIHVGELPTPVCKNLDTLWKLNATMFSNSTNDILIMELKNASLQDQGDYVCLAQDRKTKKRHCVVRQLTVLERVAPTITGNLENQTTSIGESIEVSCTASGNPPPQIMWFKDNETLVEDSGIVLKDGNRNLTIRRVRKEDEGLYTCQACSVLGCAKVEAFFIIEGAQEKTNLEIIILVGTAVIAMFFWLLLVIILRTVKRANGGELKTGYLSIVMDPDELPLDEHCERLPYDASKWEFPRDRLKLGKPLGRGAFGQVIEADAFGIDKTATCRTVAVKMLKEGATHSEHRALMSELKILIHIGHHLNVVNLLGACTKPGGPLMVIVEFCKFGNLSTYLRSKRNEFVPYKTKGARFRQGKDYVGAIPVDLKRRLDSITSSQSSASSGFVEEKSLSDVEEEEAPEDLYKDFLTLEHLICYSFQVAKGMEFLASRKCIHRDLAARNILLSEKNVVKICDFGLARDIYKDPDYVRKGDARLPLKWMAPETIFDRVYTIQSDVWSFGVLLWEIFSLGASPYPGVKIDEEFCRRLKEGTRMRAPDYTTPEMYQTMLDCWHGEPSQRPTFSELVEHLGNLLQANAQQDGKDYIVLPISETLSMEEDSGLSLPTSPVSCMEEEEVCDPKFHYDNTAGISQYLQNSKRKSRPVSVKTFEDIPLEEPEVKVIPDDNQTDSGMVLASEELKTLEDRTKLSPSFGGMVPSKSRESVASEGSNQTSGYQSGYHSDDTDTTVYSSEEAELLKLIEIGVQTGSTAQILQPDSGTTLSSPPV

**Q.** Which results are given for `CNC(=O)c1cc2c(Oc3ccc(NC(=O)C4(C(=O)Nc5ccc(F)cc5)CC4)cc3)ccnc2cc1OC` [Compound 1, 1-N′-(4-Fluorophenvl)-1-N-[4-[7-methoxy-6-(methylcarbamovl)quinolin-4-yl]oxyphenyl]cyclopropane-1,1-dicarboxamide]?
**A.** average vessel number (CD31 staining) ([1]; 30 mg/kg PO qd 5 days, vehicle 26.9): 17.6; presence of tumor microvessels ([1]; 3, 10, 30 mg/kg PO qd 5 days): Dose-dependent decreases; IC50 [2]: 5.8 nM; IC50 [3]: 0.6 nM; IC50 [4]: 3 nM; IC50 [5]: 15 nM; mean accumulation ratio for AUC0-24 ([6]; 18 mg/kg dose level): 0.874; mean accumulation ratio for Cmax ([6]; 18 mg/kg dose level): 0.891; mean accumulation ratio for AUC0-24 ([6]; 2 and 6 mg/kg dose levels): 1.57-3.38; mean accumulation ratio for Cmax ([6]; 2 and 6 mg/kg dose levels): 1.67-4.75; Sex differences in mean Cmax and AUC0-24 values ([6]; 28-day study): less than 2 fold; half-life ([6]; both sexes, dog, plasma, Day 1): 4.57 to 6.29 h; half-life ([6]; both sexes, dog, plasma, Day 28): 3.96 to 5.23 h; Tmax ([6]; both sexes, dog, plasma, oral gavage 2, 6 and 18 mg/kg, Days 1 and 28, read-out: median Tmax): 2 h; mean AUC0-24 of PIB formulation higher than tablet formulation ([7]; 20 mg single oral dose): 49%; mean Cmax of PIB formulation higher than tablet formulation ([7]; 20 mg single oral dose): 61%; Tmax ([7]; beagle, dog, plasma, oral, 20 mg, both formulations (PIB and tablet), read-out: median tmax): 3 h; half-life ([7]; beagle, dog, plasma, 20 mg, 20 mg reconstituted oral suspension of PIB formulation): 4.85 h; half-life ([7]; beagle, dog, plasma, 20 mg, 20-mg oral tablet): 5.66 h; EC50 ([8]; human, fresh primary human hepatocytes, mRNA induction, read-out: half-maximal effective concentration (EC50)): 5410 nM; maximal induction effect (Emax) ([8]; mRNA, 0.1-100 μM): 17 fold; CLint [9]: 0.373 mL/min/g liver; CLint [10]: 0.285 mL/min/g liver; CLint [11]: 1.08 mL/min/g liver; CLint [12]: 0.317 mL/min/g liver; reversibility of adverse findings ([13]; 14-day non-treatment recovery period): partially or completely reversible; Cmax at 28 days ([13]; both sexes, dog, plasma, oral, 18 mg/kg/day, daily dosing for 28 days): ~7 µM; ophthalmic findings ([13]; daily for 4 weeks): No adverse ophthalmic findings; QTc interval ([13]; male and female dogs, daily dosing 28 days, 18 mg/kg/day): no QTc interval prolongation; cholesterol ([13]; repeat-dose): increased cholesterol; dose-related clinical signs ([13]; repeat-dose): hypoactivity, vomitus, and fecal changes; reticulocytes ([13]; repeat-dose): transient decreases in reticulocytes; nasal turbinate histologic findings ([13]; terminal sacrifice males >6 mg/kg/day, considered non-adverse): increased incidences and severities of mixed cell inflammation and osteolysis/osteogenesis; IC50 [14]: 7.1 nM
